Experimental data published in ChEMBL document CHEMBL4808193, “[11]-Chaetoglobosins from Pseudeurotium bakeri Induce G2/M Cell Cycle Arrest and Apoptosis in Human Cancer Cells” (J Nat Prod, 2021).
Structures can show the parent of a compound that is named as a salt.

Tests used:
HCT-116 = assay: Cytotoxicity against human HCT-116 cells assessed as reduction in cell viability by MTT assay; format: functional, cell-based
HepG2 = assay: Cytotoxicity against human HepG2 cells assessed as reduction in cell viability by MTT assay; format: functional, cell-based
HeLa = assay: Cytotoxicity against human HeLa cells assessed as reduction in cell viability by MTT assay; format: functional, cell-based
A549 = assay: Cytotoxicity against human A549 cells assessed as reduction in cell viability by MTT assay; format: functional, cell-based
A-427 [1] = assay: Cytotoxicity against human A-427 cells assessed as reduction in cell viability by MTT assay; format: functional, cell-based
L02 = assay: Cytotoxicity against human L02 cells assessed as reduction in cell viability by MTT assay; format: cell-based
MCF7 [2] = assay: Cytotoxicity against human MCF7 cells assessed as reduction in cell viability by MTT assay; format: functional, cell-based
HT-29 = assay: Cytotoxicity against human HT-29 cells assessed as reduction in cell viability by MTT assay; format: functional, cell-based
A-427 [3] = assay: Induction of apoptosis in human A-427 cells assessed as early apoptotic cells at 10 uM measured after 24 hrs by Annexin V-FITC/propidium iodide staining based flow cytometric analysis (reference value: 6.58%); format: functional
MCF7 [4] = assay: Induction of apoptosis in human MCF7 cells assessed as late apoptotic cells at 5 uM measured after 24 hrs by Annexin V-FITC/propidium iodide staining based flow cytometric analysis (reference value: 0.38%); format: functional
MCF7 [5] = assay: Cell cycle arrest in human MCF7 cells assessed as accumulation at G0/G1 phase at 4.5 uM measured after 24 hrs by PI staining based flow cytometry (reference value: 50.58%); format: functional
MCF7 [6] = assay: Cell cycle arrest in human MCF7 cells assessed as accumulation at G2/M phase at 3 uM measured after 24 hrs by PI staining based flow cytometry (reference value: 15.28%); format: functional
MCF7 [7] = assay: Cell cycle arrest in human MCF7 cells assessed as accumulation at G2/M phase at 1.5 uM measured after 24 hrs by PI staining based flow cytometry (reference value: 15.28%); format: functional
A-427 [8] = assay: Cell cycle arrest in human A-427 cells assessed as accumulation at S phase at 2.5 uM measured after 24 hrs by PI staining based flow cytometry (reference value: 33.14%); format: functional
MCF7 [9] = assay: Induction of apoptosis in human MCF7 cells assessed as late apoptotic cells at 10 uM measured after 24 hrs by Annexin V-FITC/propidium iodide staining based flow cytometric analysis (reference value: 0.38%); format: functional
MCF7 [10] = assay: Induction of apoptosis in human MCF7 cells assessed as early apoptotic cells at 15 uM measured after 24 hrs by Annexin V-FITC/propidium iodide staining based flow cytometric analysis (reference value: 1.49%); format: functional
A-427 [11] = assay: Induction of apoptosis in human A-427 cells assessed as early apoptotic cells at 5 uM measured after 24 hrs by Annexin V-FITC/propidium iodide staining based flow cytometric analysis (reference value: 6.58%); format: functional
A-427 [12] = assay: Induction of apoptosis in human A-427 cells assessed as early apoptotic cells at 2.5 uM measured after 24 hrs by Annexin V-FITC/propidium iodide staining based flow cytometric analysis (reference value: 6.58%); format: functional
A-427 [13] = assay: Induction of apoptosis in human A-427 cells assessed as late apoptotic cells at 5 uM measured after 24 hrs by Annexin V-FITC/propidium iodide staining based flow cytometric analysis (reference value: 2.06%); format: functional
MCF7 [14] = assay: Cell cycle arrest in human MCF7 cells assessed as accumulation at G2/M phase at 4.5 uM measured after 24 hrs by PI staining based flow cytometry (reference value: 15.28%); format: functional
A-427 [15] = assay: Cell cycle arrest in human A-427 cells assessed as accumulation at G2/M phase at 10 uM measured after 24 hrs by PI staining based flow cytometry (reference value: 18.80%); format: functional
A-427 [16] = assay: Cell cycle arrest in human A-427 cells assessed as accumulation at G0/G1 phase at 5 uM measured after 24 hrs by PI staining based flow cytometry (reference value: 48.06%); format: functional
A-427 [17] = assay: Cell cycle arrest in human A-427 cells assessed as accumulation at G0/G1 phase at 2.5 uM measured after 24 hrs by PI staining based flow cytometry (reference value: 48.06%); format: functional
MCF7 [18] = assay: Cell cycle arrest in human MCF7 cells assessed as accumulation at S phase at 1.5 uM measured after 24 hrs by PI staining based flow cytometry (reference value: 34.14%); format: functional
MCF7 [19] = assay: Cell cycle arrest in human MCF7 cells assessed as accumulation at S phase at 4.5 uM measured after 24 hrs by PI staining based flow cytometry (reference value: 34.14%); format: functional
MCF7 [20] = assay: Induction of apoptosis in human MCF7 cells assessed as early apoptotic cells at 5 uM measured after 24 hrs by Annexin V-FITC/propidium iodide staining based flow cytometric analysis (reference value: 1.49%); format: functional
A-427 [21] = assay: Cell cycle arrest in human A-427 cells assessed as accumulation at G2/M phase at 2.5 uM measured after 24 hrs by PI staining based flow cytometry (reference value: 18.80%); format: functional
MCF7 [22] = assay: Cell cycle arrest in human MCF7 cells assessed as accumulation at S phase at 3 uM measured after 24 hrs by PI staining based flow cytometry (reference value: 34.14%; format: functional
MCF7 [23] = assay: Induction of apoptosis in human MCF7 cells assessed as early apoptotic cells at 10 uM measured after 24 hrs by Annexin V-FITC/propidium iodide staining based flow cytometric analysis (reference value: 1.49%); format: functional
A-427 [24] = assay: Cell cycle arrest in human A-427 cells assessed as accumulation at G0/G1 phase at 10 uM measured after 24 hrs by PI staining based flow cytometry (reference value: 48.06%); format: functional
MCF7 [25] = assay: Cell cycle arrest in human MCF7 cells assessed as accumulation at G0/G1 phase at 3 uM measured after 24 hrs by PI staining based flow cytometry (reference value: 50.58%); format: functional
A-427 [26] = assay: Cell cycle arrest in human A-427 cells assessed as accumulation at G2/M phase at 5 uM measured after 24 hrs by PI staining based flow cytometry (reference value: 18.80%); format: functional
A-427 [27] = assay: Induction of apoptosis in human A-427 cells assessed as late apoptotic cells at 2.5 uM measured after 24 hrs by Annexin V-FITC/propidium iodide staining based flow cytometric analysis (reference value: 2.06%); format: functional
A-427 [28] = assay: Cell cycle arrest in human A-427 cells assessed as accumulation at S phase at 10 uM measured after 24 hrs by PI staining based flow cytometry (reference value: 33.14%); format: functional
A-427 [29] = assay: Induction of apoptosis in human A-427 cells assessed as late apoptotic cells at 10 uM measured after 24 hrs by Annexin V-FITC/propidium iodide staining based flow cytometric analysis (reference value: 2.06%); format: functional
MCF7 [30] = assay: Cell cycle arrest in human MCF7 cells assessed as accumulation at G0/G1 phase at 1.5 uM measured after 24 hrs by PI staining based flow cytometry (reference value: 50.58%); format: functional
MCF7 [31] = assay: Induction of apoptosis in human MCF7 cells assessed as late apoptotic cells at 15 uM measured after 24 hrs by Annexin V-FITC/propidium iodide staining based flow cytometric analysis (reference value: 0.38%); format: functional
A-427 [32] = assay: Cell cycle arrest in human A-427 cells assessed as accumulation at S phase at 5 uM measured after 24 hrs by PI staining based flow cytometry (reference value: 33.14%); format: functional

C=C1[C@@H](C)[C@H]2[C@H](Cc3c[nH]c4ccccc34)NC(=O)[C@]23C(=O)CCCC[C@@H](C)C/C=C/[C@H]3[C@@H]1O
IC50 (HCT-116): 45.3 µM | IC50 (HepG2): > 50 µM | IC50 (HeLa): > 50 µM | IC50 (A549): 40.4 µM | IC50 (A-427 [1]): > 50 µM | IC50 (L02): > 50 µM | IC50 (MCF7 [2]): > 50 µM | IC50 (HT-29): > 50 µM

CO[C@@H]1/C=C\[C@@H](C)C/C=C/[C@H]2[C@H](O)C(C)=C(C)[C@H]3[C@H](Cc4c[nH]c5ccccc45)NC(=O)[C@@]23C(=O)C1
IC50 (HCT-116): 26.1 µM | IC50 (HepG2): > 50 µM | IC50 (HeLa): 41.5 µM | IC50 (A549): 21.5 µM | IC50 (A-427 [1]): > 50 µM | IC50 (L02): > 50 µM | IC50 (MCF7 [2]): > 50 µM | IC50 (HT-29): > 50 µM

CC1=C[C@@H]2/C=C/C[C@H](C)CC(=O)[C@@H]3O[C@H]3C(=O)[C@]23C(=O)N[C@@H](Cc2c[nH]c4ccccc24)[C@@H]3[C@@H]1C
IC50 (HCT-116): > 50 µM | IC50 (HepG2): 37.3 µM | IC50 (HeLa): > 50 µM | IC50 (A549): 44 µM | IC50 (A-427 [1]): > 50 µM | IC50 (L02): > 50 µM | IC50 (MCF7 [2]): > 50 µM | IC50 (HT-29): 40.4 µM

C[C@H]1C/C=C/[C@H]2C(=O)[C@H](C)[C@@H](C)[C@H]3[C@H](Cc4c[nH]c5ccccc45)NC(=O)[C@]32C(=O)CCCC1
IC50 (HCT-116): > 50 µM | IC50 (HepG2): > 50 µM | IC50 (HeLa): > 50 µM | IC50 (A549): > 50 µM | IC50 (A-427 [1]): > 50 µM | IC50 (L02): > 50 µM | IC50 (MCF7 [2]): > 50 µM | IC50 (HT-29): > 50 µM

CC1=C(C)[C@H]2[C@H](Cc3c[nH]c4ccccc34)NC(=O)[C@]23C(=O)/C=C\CC[C@@H](C)C/C=C/[C@H]3[C@@H]1O
Activity (A-427 [3]): 31.16% | Activity (MCF7 [4]): 11.69% | Activity (MCF7 [5]): 9.24% | IC50 (HCT-116): 11.2 µM | Activity (MCF7 [6]): 71.45% | IC50 (HepG2): 10.7 µM | IC50 (HeLa): 10.1 µM | Activity (MCF7 [7]): 58.41% | Activity (A-427 [8]): 20.59% | Activity (MCF7 [9]): 15.06% | Activity (MCF7 [10]): 12.83% | Activity (A-427 [11]): 20.64% | Activity (A-427 [12]): 18.24% | IC50 (A549): 6.9 µM | Activity (A-427 [13]): 33.06% | Activity (MCF7 [14]): 82.7% | Activity (A-427 [15]): 42.41% | IC50 (A-427 [1]): 7.5 µM | Activity (A-427 [16]): 41.36% | Activity (A-427 [17]): 45.18% | IC50 (L02): 41.8 µM | Activity (MCF7 [18]): 17.94% | Activity (MCF7 [19]): 8.06% | Activity (MCF7 [20]): 10.35% | Activity (A-427 [21]): 34.23% | Activity (MCF7 [22]): 11.19% | Activity (MCF7 [23]): 11.17% | IC50 (MCF7 [2]): 6.8 µM | Activity (A-427 [24]): 35.56% | Activity (MCF7 [25]): 17.36% | IC50 (HT-29): 8.8 µM | Activity (A-427 [26]): 37.05% | Activity (A-427 [27]): 32.65% | Activity (A-427 [28]): 22.03% | Activity (A-427 [29]): 33.54% | Activity (MCF7 [30]): 23.65% | Activity (MCF7 [31]): 21.26% | Activity (A-427 [32]): 21.59%

COc1cccc2c1C(=O)c1c(O)c3c(c(O)c1C2=O)C[C@@](O)(C(=O)CO)C[C@@H]3O[C@H]1C[C@H](N)[C@H](O)[C@H](C)O1 [DOXORUBICIN HYDROCHLORIDE]
IC50 (HCT-116): 2.9 µM | IC50 (HepG2): 0.4 µM | IC50 (L02): 0.7 µM | IC50 (HT-29): 2.6 µM

CO[C@@H]1CC(=O)C[C@@H](C)C/C=C/[C@H]2C=C(C)[C@@H](C)[C@H]3[C@H](Cc4c[nH]c5ccccc45)NC(=O)[C@]32C1=O
IC50 (HCT-116): 30.9 µM | IC50 (HepG2): 44.4 µM | IC50 (HeLa): > 50 µM | IC50 (A549): 23.3 µM | IC50 (A-427 [1]): > 50 µM | IC50 (L02): > 50 µM | IC50 (MCF7 [2]): > 50 µM | IC50 (HT-29): 43.8 µM

CC(=O)O[C@@H]1CC(=O)C[C@@H](C)C/C=C/[C@H]2[C@H](O)C(C)=C(C)[C@H]3[C@H](Cc4c[nH]c5ccccc45)NC(=O)[C@@]23C1=O
IC50 (HCT-116): 21.2 µM | IC50 (HepG2): > 50 µM | IC50 (HeLa): > 50 µM | IC50 (A549): 15.9 µM | IC50 (A-427 [1]): > 50 µM | IC50 (L02): > 50 µM | IC50 (MCF7 [2]): > 50 µM | IC50 (HT-29): > 50 µM

CC1=C[C@@H]2/C=C/C[C@H](C)CCCCC(=O)[C@]23C(=O)N[C@@H](Cc2c[nH]c4ccccc24)[C@@H]3[C@@H]1C
IC50 (HCT-116): 38.5 µM | IC50 (HepG2): > 50 µM | IC50 (HeLa): 20.3 µM | IC50 (A549): > 50 µM | IC50 (A-427 [1]): 13.8 µM | IC50 (L02): > 50 µM | IC50 (MCF7 [2]): > 50 µM | IC50 (HT-29): > 50 µM

CC1=C(C)[C@H]2[C@H](Cc3c[nH]c4ccccc34)NC(=O)[C@]23C(=O)CCCC[C@@H](C)C/C=C/[C@H]3[C@@H]1O
IC50 (HCT-116): > 50 µM | IC50 (HepG2): > 50 µM | IC50 (HeLa): 18.9 µM | IC50 (A549): > 50 µM | IC50 (A-427 [1]): > 50 µM | IC50 (L02): 46.3 µM | IC50 (MCF7 [2]): > 50 µM | IC50 (HT-29): > 50 µM
